Assay results published in ChEMBL document CHEMBL1135845, “N-(arylacetyl)-biphenylalanines as potent VLA-4 antagonists” (Bioorg Med Chem Lett, 2002).

Tests used:
[1] = Inhibition of VLA-4 binding to radiolabeled vascular cell adhesion molecule-1 (VCAM-1) Ig fusion protein in human Jurkat cells; type: cell-based
[2] = target: T1, Integrin alpha-4/beta-7 (Homo sapiens, UniProt P13612+P26010); experiment: Inhibition of alpha4-beta7 integrin binding to radiolabeled vascular cell adhesion molecule-1 (VCAM-1) Ig fusion protein in human Jurkat cells; type: cell-based
T1 sequence (P13612 whole entry): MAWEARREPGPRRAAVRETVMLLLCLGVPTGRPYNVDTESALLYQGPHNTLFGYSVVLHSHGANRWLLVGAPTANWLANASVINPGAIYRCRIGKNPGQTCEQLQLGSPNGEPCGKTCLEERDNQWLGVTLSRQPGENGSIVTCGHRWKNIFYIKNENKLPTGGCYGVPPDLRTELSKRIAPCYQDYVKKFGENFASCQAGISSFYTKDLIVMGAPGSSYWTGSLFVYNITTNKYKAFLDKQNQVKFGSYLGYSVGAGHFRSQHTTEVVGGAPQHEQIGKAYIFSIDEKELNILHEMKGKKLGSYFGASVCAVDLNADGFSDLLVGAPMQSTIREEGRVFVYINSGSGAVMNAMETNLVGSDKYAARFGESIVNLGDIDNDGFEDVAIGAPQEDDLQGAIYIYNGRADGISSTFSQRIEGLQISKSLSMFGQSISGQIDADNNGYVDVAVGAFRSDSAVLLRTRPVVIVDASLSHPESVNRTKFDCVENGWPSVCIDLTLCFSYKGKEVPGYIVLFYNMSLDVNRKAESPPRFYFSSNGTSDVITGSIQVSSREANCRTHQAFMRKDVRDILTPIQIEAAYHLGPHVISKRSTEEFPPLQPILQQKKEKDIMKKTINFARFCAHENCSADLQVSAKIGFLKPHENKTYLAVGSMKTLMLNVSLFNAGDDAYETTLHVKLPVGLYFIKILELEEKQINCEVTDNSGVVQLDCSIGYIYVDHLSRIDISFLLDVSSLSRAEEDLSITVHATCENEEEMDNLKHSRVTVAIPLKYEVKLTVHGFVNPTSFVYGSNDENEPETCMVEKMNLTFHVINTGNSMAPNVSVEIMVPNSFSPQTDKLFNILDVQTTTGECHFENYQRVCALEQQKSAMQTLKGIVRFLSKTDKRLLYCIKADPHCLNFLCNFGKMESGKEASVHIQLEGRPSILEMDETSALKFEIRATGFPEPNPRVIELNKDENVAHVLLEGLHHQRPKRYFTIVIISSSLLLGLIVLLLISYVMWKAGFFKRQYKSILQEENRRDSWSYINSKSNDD
T1 sequence (P26010 whole entry): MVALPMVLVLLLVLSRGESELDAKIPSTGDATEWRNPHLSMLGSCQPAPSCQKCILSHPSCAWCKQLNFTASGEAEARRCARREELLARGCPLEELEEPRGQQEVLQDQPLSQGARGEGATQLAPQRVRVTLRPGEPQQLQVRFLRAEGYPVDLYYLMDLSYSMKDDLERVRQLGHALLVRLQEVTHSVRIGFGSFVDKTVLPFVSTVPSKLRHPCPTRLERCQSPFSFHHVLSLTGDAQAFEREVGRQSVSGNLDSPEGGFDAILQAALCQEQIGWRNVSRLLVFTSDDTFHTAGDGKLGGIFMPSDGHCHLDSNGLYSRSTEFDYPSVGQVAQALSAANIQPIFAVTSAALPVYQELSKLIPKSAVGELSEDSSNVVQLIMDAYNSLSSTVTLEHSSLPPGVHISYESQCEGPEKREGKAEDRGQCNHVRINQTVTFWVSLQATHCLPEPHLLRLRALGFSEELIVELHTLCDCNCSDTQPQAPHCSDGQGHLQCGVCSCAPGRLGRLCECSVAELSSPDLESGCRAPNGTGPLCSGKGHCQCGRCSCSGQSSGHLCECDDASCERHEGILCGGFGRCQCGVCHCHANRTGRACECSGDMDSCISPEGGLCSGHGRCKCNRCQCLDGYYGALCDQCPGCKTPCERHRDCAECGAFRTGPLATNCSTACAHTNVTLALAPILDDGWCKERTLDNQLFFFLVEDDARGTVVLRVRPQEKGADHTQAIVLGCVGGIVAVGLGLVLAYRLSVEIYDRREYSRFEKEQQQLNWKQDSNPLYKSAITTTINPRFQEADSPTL

[3] = Bioavailability in rat (Sprague-Dawley) (dose 1 mg/kg i.v. and 2 mg/kg p.o.); type: ADME, organism-based; conditions: in vivo, po
[4] = Plasma clearance rate in Sprague-Dawley rats; type: ADME, organism-based; conditions: rat, read-out: Clp
[5] = Plasma half-life was determined in Sprague-Dawley rats after 0-8 h administration of the compound; type: ADME, organism-based; conditions: rat

Row | IC50 [1] | IC50 [2] | bioavailability [3] | clearance [4] | half-life [5] | SMILES
1 | 0.5 nM | 33 nM | – | – | – | COc1ccccc1-c1ccc(C[C@H](NC(=O)C2(c3ccnnc3)CCCC2)C(=O)O)cc1
2 | 0.5 nM | 94 nM | < 1% | > 100 mL/min/kg | – | COc1ccccc1-c1ccc(C[C@H](NC(=O)C2(c3cccnc3)CCOCC2)C(=O)O)cc1
3 | 246 nM | – | – | – | – | COc1ccccc1-c1ccc(C[C@H](NC(=O)Cc2cccc(F)c2)C(=O)O)cc1
4 | 264 nM | – | – | – | – | COc1ccccc1-c1ccc(C[C@H](NC(=O)Cc2ccccc2)C(=O)O)cc1
5 | 3 nM | 215 nM | < 1% | > 100 mL/min/kg | – | COc1ccccc1-c1ccc(C[C@H](NC(=O)C2(c3ccccn3)CCCC2)C(=O)O)cc1
6 | 2.1 nM | 18 nM | – | – | – | COc1ccccc1-c1ccc(C[C@H](NC(=O)C2(c3ccc(=O)n(C)c3)CCCC2)C(=O)O)cc1
7 | 328 nM | – | – | – | – | COc1ccccc1-c1ccc(C[C@H](NC(=O)Cc2cccc(Cl)c2)C(=O)O)cc1
8 | 129 nM | – | – | – | – | COc1ccccc1-c1ccc(C[C@H](NC(=O)Cc2ccc(F)cc2)C(=O)O)cc1
9 | 8 nM | – | – | – | – | COc1ccccc1-c1ccc(C[C@H](NC(=O)Cc2c(Cl)cccc2Cl)C(=O)O)cc1
10 | 607 nM | – | – | – | – | COc1ccccc1-c1ccc(C[C@H](NC(=O)Cc2ccc(-c3ccccc3)cc2)C(=O)O)cc1
11 | 14.1 nM | – | 94% | 7.5 mL/min/kg | 120 min | COc1ccccc1-c1ccc(C[C@H](NC(=O)C(C)(C)c2ccccc2)C(=O)O)cc1
12 | 90.7 nM | – | – | – | – | COc1ccccc1-c1ccc(C[C@H](NC(=O)C2(c3ccccc3)CC2)C(=O)O)cc1
13 | 9.8 nM | 120 nM | – | – | – | COc1ccccc1-c1ccc(C[C@H](NC(=O)C2(c3cncc4ccccc34)CCCC2)C(=O)O)cc1
14 | 0.5 nM | 9.9 nM | 35% | 24 mL/min/kg | 66 min | COc1ccccc1-c1ccc(C[C@H](NC(=O)C2(c3cccnc3)CCCC2)C(=O)O)cc1
15 | 145 nM | – | – | – | – | COc1ccccc1-c1ccc(C[C@H](NC(=O)Cc2cccc3ccccc23)C(=O)O)cc1
16 | 15.8 nM | – | – | – | – | COc1ccccc1-c1ccc(C[C@H](NC(=O)Cc2ccccn2)C(=O)O)cc1
17 | 30.9 nM | – | – | – | – | COc1ccccc1-c1ccc(C[C@H](NC(=O)Cc2cccc(C)c2)C(=O)O)cc1
18 | 16.6 nM | – | – | – | – | COc1ccccc1-c1ccc(C[C@H](NC(=O)Cc2ccc(Cl)cc2Cl)C(=O)O)cc1
19 | 1.2 nM | 22 nM | 1% | > 100 mL/min/kg | 12 min | COc1ccccc1-c1ccc(C[C@H](NC(=O)C2(c3cnccc3C)CCCC2)C(=O)O)cc1
20 | 315 nM | – | – | – | – | COc1ccccc1-c1ccc(C[C@H](NC(=O)Cc2ccc(Cl)cc2)C(=O)O)cc1
21 | 12.2 nM | – | – | – | – | COc1ccccc1-c1ccc(C[C@H](NC(=O)Cc2ccncc2)C(=O)O)cc1
22 | 14.4 nM | – | – | – | – | COc1ccccc1-c1ccc(C[C@H](NC(=O)Cn2cnnn2)C(=O)O)cc1
23 | 0.9 nM | 16.7 nM | – | – | – | COc1ccccc1-c1ccc(C[C@H](NC(=O)C2(c3cccnc3)CC=CC2)C(=O)O)cc1

Row | IC50 [1] | IC50 [2] | bioavailability [3] | clearance [4] | half-life [5] | SMILES
24 | 7.1 nM | – | – | – | – | COc1ccccc1-c1ccc(C[C@H](NC(=O)C(OC)c2ccccc2)C(=O)O)cc1 (some centres undefined)
25 | 3.2 nM | 110 nM | 55% | 21.5 mL/min/kg | 60 min | COc1ccccc1-c1ccc(C[C@H](NC(=O)C2(c3ccccc3)CCCC2)C(=O)O)cc1
26 | 1.5 nM | 44 nM | 11% | > 100 mL/min/kg | 36 min | COc1ccccc1-c1ccc(C[C@H](NC(=O)C2(c3cccnc3C)CCCC2)C(=O)O)cc1
27 | 44.9 nM | – | – | – | – | COc1ccccc1-c1ccc(C[C@H](NC(=O)Cc2ccc([N+](=O)[O-])cc2)C(=O)O)cc1
28 | 36.8 nM | – | – | – | – | COc1ccccc1-c1ccc(C[C@H](NC(=O)Cc2ccccc2Cl)C(=O)O)cc1
29 | 3.9 nM | 98 nM | – | – | – | COc1ccccc1-c1ccc(C[C@H](NC(=O)C2(c3cnc4ccccc4c3)CCCC2)C(=O)O)cc1
30 | 3.2 nM | 180 nM | – | – | – | COc1ccccc1-c1ccc(C[C@H](NC(=O)C2(c3ccc[n+]([O-])c3)CCCC2)C(=O)O)cc1
31 | 6.5 nM | – | – | – | – | COc1ccccc1-c1ccc(C[C@H](NC(=O)C2(c3ccccc3)CCCCC2)C(=O)O)cc1
32 | 4.8 nM | – | – | – | – | COc1ccccc1-c1ccc(C[C@H](NC(=O)Cc2ccccc2[N+](=O)[O-])C(=O)O)cc1
33 | 6.15 nM | – | – | – | – | COc1ccccc1-c1ccc(C[C@H](NC(=O)Cn2cnc(Cl)c2Cl)C(=O)O)cc1
34 | 0.7 nM | 94 nM | – | – | – | COc1ccccc1-c1ccc(C[C@H](NC(=O)C2(c3cccnc3)CCC(C)C2)C(=O)O)cc1 (mixture of isomers)
35 | 1.6 nM | 165 nM | – | – | – | COc1ccccc1-c1ccc(C[C@H](NC(=O)C2(c3cncc(Br)c3)CCCC2)C(=O)O)cc1
36 | 1.4 nM | 26 nM | 1% | > 100 mL/min/kg | – | COc1ccccc1-c1ccc(C[C@H](NC(=O)C2(c3ccc(O)nc3)CCCC2)C(=O)O)cc1
37 | 0.7 nM | 49 nM | 17% | > 100 mL/min/kg | 150 min | COc1ccccc1-c1ccc(C[C@H](NC(=O)C2(c3ccncc3)CCCC2)C(=O)O)cc1
38 | 801 nM | – | – | – | – | COc1ccccc1-c1ccc(C[C@H](NC(=O)Cc2ccc3ccccc3c2)C(=O)O)cc1
39 | 0.7 nM | 30 nM | – | – | – | COc1ccccc1-c1ccc(C[C@H](NC(=O)C2(c3cccnc3)CCN(C(C)=O)CC2)C(=O)O)cc1
40 | 12.9 nM | – | – | – | – | COc1ccccc1-c1ccc(C[C@H](NC(=O)Cc2cccnc2)C(=O)O)cc1
41 | 0.8 nM | 15 nM | – | – | – | COc1cc(C2(C(=O)N[C@@H](Cc3ccc(-c4ccccc4OC)cc3)C(=O)O)CCCC2)ccn1
42 | 1.3 nM | 36.3 nM | 12% | > 100 mL/min/kg | 18 min | COc1ccccc1-c1ccc(C[C@H](NC(=O)C2(c3ccc(C)nc3)CCCC2)C(=O)O)cc1
43 | 262 nM | – | – | – | – | COc1ccccc1-c1ccc(C[C@H](NC(C)=O)C(=O)O)cc1
44 | 1.4 nM | 158 nM | 6% | 82 mL/min/kg | 24 min | COc1ccccc1-c1ccc(C[C@H](NC(=O)C2(c3cccnc3)CCCCC2)C(=O)O)cc1
45 | 64.9 nM | – | – | – | – | COc1ccccc1-c1ccc(C[C@H](NC(=O)Cc2cccc([N+](=O)[O-])c2)C(=O)O)cc1

Row | SMILES | IC50 [1] | IC50 [2] | bioavailability [3] | clearance [4] | half-life [5]
46 | COc1ccccc1-c1ccc(C[C@H](NC(=O)C2(c3cccnc3)CCNCC2)C(=O)O)cc1 | 5.1 nM | 83 nM | – | – | –
47 | COc1ccccc1-c1ccc(C[C@H](NC(=O)C2(c3cccnc3)CCN(C)CC2)C(=O)O)cc1 | 1 nM | 51 nM | – | – | –
